Test results taken from ChEMBL document CHEMBL1201861, “Genomics of Drug Sensitity in Cancer screening data, Wellcome Trust Sanger Institute”.

Assays:
Experiment in all cases: cells
SW872 = format: functional, cell-based, Homo sapiens; settings: Homo sapiens, SW872;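 also: growth inhibition of SW872 cells, read out by a viability assay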
Description: SANGER: Inhibition of human SW872 cell growth in a cell viability assay.

A-431 = format: functional, cell-based, Homo sapiens; settings: Homo sapiens, A-431;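 also: growth inhibition of A-431 cells, determined with a cell viability read-out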
Description: SANGER: Inhibition of human A431 cell growth in a cell viability assay.

NCI-H2228 = format: functional, cell-based, Homo sapiens; settings: Homo sapiens, NCI-H2228;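 also: growth inhibition of human NCI-H2228 cells, read out by a cell viability assay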
Description: SANGER: Inhibition of human NCI-H2228 cell growth in a cell viability assay.

RMG-I = format: functional, cell-based, Homo sapiens; settings: Homo sapiens, RMG-I;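 also: growth inhibition of human RMG-I cells, read out with a cell viability assay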
Description: SANGER: Inhibition of human RMG-I cell growth in a cell viability assay.

NCI-H1770 = format: functional, cell-based; settings: Homo sapiens;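 also: growth inhibition of NCI-H1770 cells determined with a viability readout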
Description: SANGER: Inhibition of human NCI-H1770 cell growth in a cell viability assay.

NCI-H661 = format: functional, cell-based, Homo sapiens; settings: Homo sapiens, NCI-H661;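 also: cell viability assay read-out, IC50 being the concentration that inhibits growth of the cells by half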
Description: SANGER: Inhibition of human NCI-H661 cell growth in a cell viability assay.

COLO-829 = format: functional, cell-based, Homo sapiens; settings: Homo sapiens, COLO-829
Description: SANGER: Inhibition of human COLO-829 cell growth in a cell viability assay.

T47D = format: functional, cell-based, Homo sapiens; settings: Homo sapiens, T47D;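 also: growth inhibition of human T47D cells, measured with a cell viability assay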
Description: SANGER: Inhibition of human T47D cell growth in a cell viability assay.

UACC-257 = format: functional, cell-based, Homo sapiens; settings: Homo sapiens, UACC-257
Description: SANGER: Inhibition of human UACC-257 cell growth in a cell viability assay.

OVCAR-8 = format: functional, cell-based, Homo sapiens; settings: Homo sapiens, OVCAR-8;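 also: growth inhibition of human OVCAR-8 cells, read out by a cell viability assay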
Description: SANGER: Inhibition of human OVCAR-8 cell growth in a cell viability assay.

LNCaP-Clone-FGC = format: functional, cell-based, Homo sapiens; settings: Homo sapiens, LNCaP-Clone-FGC
Description: SANGER: Inhibition of human LNCaP-Clone-FGC cell growth in a cell viability assay.

RVH-421 = format: functional, cell-based, Homo sapiens; settings: Homo sapiens, RVH-421
Description: SANGER: Inhibition of human RVH-421 cell growth in a cell viability assay.

BB65-RCC = format: functional, cell-based, Homo sapiens; settings: Homo sapiens, BB65-RCC;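 also: growth inhibition of the cell line, measured with a cell viability assay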
Description: SANGER: Inhibition of human BB65-RCC cell growth in a cell viability assay.

SNU1 = format: functional, cell-based; settings: Homo sapiens;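 also: growth inhibition of human NCI-SNU-1 cells, measured with a cell viability assay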
Description: SANGER: Inhibition of human NCI-SNU-1 cell growth in a cell viability assay.

CaR-1 = format: functional, cell-based, Homo sapiens; settings: Homo sapiens, CaR-1;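 also: growth inhibition of human CaR-1 cancer cells, read out with a cell viability assay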
Description: SANGER: Inhibition of human CaR-1 cell growth in a cell viability assay.

HL-60 = format: functional, cell-based; settings: Homo sapiens;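 also: growth inhibition of human HL-60 cells, read out with a cell viability assay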
Description: SANGER: Inhibition of human HL-60 cell growth in a cell viability assay.

NCI-H1563 = format: functional, cell-based, Homo sapiens; settings: Homo sapiens, NCI-H1563;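 also: growth inhibition of human NCI-H1563 cells, read out with a cell viability assay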
Description: SANGER: Inhibition of human NCI-H1563 cell growth in a cell viability assay.

HT-144 = format: functional, cell-based, Homo sapiens; settings: Homo sapiens, HT-144
Description: SANGER: Inhibition of human HT-144 cell growth in a cell viability assay.

JAR = format: functional, cell-based, Homo sapiens; settings: Homo sapiens, JAR;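 also: growth inhibition of human JAR cells determined with a cell viability assay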
Description: SANGER: Inhibition of human JAR cell growth in a cell viability assay.

HT1197 = format: functional, cell-based, Homo sapiens, HT-1197; settings: Homo sapiens, HT1197
Description: SANGER: Inhibition of human HT-1197 cell growth in a cell viability assay.

TE-5 = format: functional, cell-based, Homo sapiens; settings: Homo sapiens, TE-5;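 also: inhibition of cell growth, read out by a cell viability assay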
Description: SANGER: Inhibition of human TE-5 cell growth in a cell viability assay.

NCI-H209 = format: functional, cell-based; settings: Homo sapiens;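 also: growth inhibition of human NCI-H209 cells, measured by a cell viability assay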
Description: SANGER: Inhibition of human NCI-H209 cell growth in a cell viability assay.

DEL = format: functional, cell-based; settings: Homo sapiens;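 also: growth inhibition of the human DEL cell line, read out with a cell viability assay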
Description: SANGER: Inhibition of human DEL cell growth in a cell viability assay.

UMUC3 = format: functional, cell-based, Homo sapiens; settings: Homo sapiens, UMUC3;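 also: growth inhibition of human UM-UC-3 cells, read out with a cell viability assay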
Description: SANGER: Inhibition of human UM-UC-3 cell growth in a cell viability assay.

SK-HEP1 = format: functional, cell-based, Homo sapiens, SK-HEP-1; settings: Homo sapiens, SK-HEP1;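 also: cell viability readout used to quantify reduction in proliferation of human SK-HEP-1 cells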
Description: SANGER: Inhibition of human SK-HEP-1 cell growth in a cell viability assay.

ACN = format: functional, cell-based, Homo sapiens; settings: Homo sapiens, ACN;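 also: growth inhibition of the human ACN cell line, read out via cell viability testing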
Description: SANGER: Inhibition of human ACN cell growth in a cell viability assay.

TE-8 = format: functional, cell-based, Homo sapiens; settings: Homo sapiens, TE-8;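 also: growth inhibition of TE-8 cells, measured with a cell viability readout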
Description: SANGER: Inhibition of human TE-8 cell growth in a cell viability assay.

no-11 = format: functional, cell-based, Homo sapiens; settings: Homo sapiens;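 also: growth inhibition of human NO-11 cells, read out with a cell viability assay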
Description: SANGER: Inhibition of human no-11 cell growth in a cell viability assay.

HEC-1 = format: functional, cell-based, Homo sapiens; settings: Homo sapiens, HEC-1;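 also: growth inhibition of the cell line, read out with a cell viability assay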
Description: SANGER: Inhibition of human HEC-1 cell growth in a cell viability assay.

CAL-62 = format: functional, cell-based, Homo sapiens; settings: Homo sapiens, CAL-62;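 also: growth inhibition of CAL-62 cells, read out with a cell viability assay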
Description: SANGER: Inhibition of human CAL-62 cell growth in a cell viability assay.

NCI-H526 = format: functional, cell-based; settings: Homo sapiens;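 also: growth inhibition of the human NCI-H526 cell line, measured by a cell viability assay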
Description: SANGER: Inhibition of human NCI-H526 cell growth in a cell viability assay.

DU-4475 = format: functional, cell-based; settings: Homo sapiens
Description: SANGER: Inhibition of human DU-4475 cell growth in a cell viability assay.

HCT-116 = format: functional, cell-based, Homo sapiens; settings: Homo sapiens, HCT-116
Description: SANGER: Inhibition of human HCT-116 cell growth in a cell viability assay.

MZ2-MEL = format: functional, cell-based, Homo sapiens; settings: Homo sapiens, MZ2-MEL;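 also: growth inhibition of MZ2-MEL cells read out with a cell viability assay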
Description: SANGER: Inhibition of human MZ2-MEL cell growth in a cell viability assay.

SK-MEL-1 = format: functional, cell-based; settings: Homo sapiens;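 also: growth inhibition of human SK-MEL-1 cells, read out by a cell viability assay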
Description: SANGER: Inhibition of human SK-MEL-1 cell growth in a cell viability assay.

COLO-684 = format: functional, cell-based; settings: Homo sapiens
Description: SANGER: Inhibition of human COLO-684 cell growth in a cell viability assay.

KARPAS-299 = format: functional, cell-based; settings: Homo sapiens
Description: SANGER: Inhibition of human KARPAS-299 cell growth in a cell viability assay.

ACHN = format: functional, cell-based, Homo sapiens; settings: Homo sapiens, ACHN;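 also: cell viability read-out used to gauge how strongly growth of human ACHN cells is suppressed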
Description: SANGER: Inhibition of human ACHN cell growth in a cell viability assay.

NCI-H650 = format: functional, cell-based, Homo sapiens; settings: Homo sapiens, NCI-H650;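 also: growth inhibition of NCI-H650 cells, read out by a viability assay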
Description: SANGER: Inhibition of human NCI-H650 cell growth in a cell viability assay.

ChaGo-K-1 = format: functional, cell-based; settings: Homo sapiens;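 also: growth inhibition of ChaGo-K-1 cells, read out with a cell viability assay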
Description: SANGER: Inhibition of human ChaGo-K-1 cell growth in a cell viability assay.

NCI-H358 = format: functional, cell-based, Homo sapiens; settings: Homo sapiens, NCI-H358;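 also: growth inhibition of NCI-H358 human cells, read out with a cell viability assay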
Description: SANGER: Inhibition of human NCI-H358 cell growth in a cell viability assay.

PFSK-1 = format: functional, cell-based, Homo sapiens; settings: Homo sapiens, PFSK-1;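 also: cell viability assay measuring how strongly compounds suppress growth of human PFSK-1 cells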
Description: SANGER: Inhibition of human PFSK-1 cell growth in a cell viability assay.

NCI-H1693 = format: functional, cell-based, Homo sapiens; settings: Homo sapiens, NCI-H1693;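 also: growth inhibition of the human cell line, read out with a cell viability assay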
Description: SANGER: Inhibition of human NCI-H1693 cell growth in a cell viability assay.

S-117 = format: functional, cell-based, Homo sapiens; settings: Homo sapiens, S-117
Description: SANGER: Inhibition of human S-117 cell growth in a cell viability assay.

C3A = format: functional, cell-based, Homo sapiens; settings: Homo sapiens, C3A;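 also: growth inhibition of C3A human cells, quantified with a cell viability readout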
Description: SANGER: Inhibition of human C3A cell growth in a cell viability assay.

Calu-3 = format: functional, cell-based, Homo sapiens; settings: Homo sapiens, Calu-3;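 also: growth inhibition of human Calu-3 cells, determined with a cell viability assay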
Description: SANGER: Inhibition of human Calu-3 cell growth in a cell viability assay.

BEN = format: functional, cell-based, Homo sapiens; settings: Homo sapiens, BEN;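 also: growth inhibition of the BEN cell line, read out with a cell viability assay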
Description: SANGER: Inhibition of human BEN cell growth in a cell viability assay.

HPAF-II = format: functional, cell-based, Homo sapiens; settings: Homo sapiens, HPAF-II;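 also: growth inhibition of HPAF-II cells, read out with a cell viability assay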
Description: SANGER: Inhibition of human HPAF-II cell growth in a cell viability assay.

NCI-H23 = format: functional, cell-based, Homo sapiens; settings: Homo sapiens, NCI-H23;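 also: cell viability assay measuring growth inhibition of NCI-H23 cells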
Description: SANGER: Inhibition of human NCI-H23 cell growth in a cell viability assay.

COc1cc(F)c(F)c(Nc2ccc(I)cc2F)c1NS(=O)(=O)C1(CC(O)CO)CC1 (stereo not drawn)
IC50 (SW872): 774 nM | IC50 (A-431): 2920 nM | IC50 (NCI-H2228): > 5 µM | IC50 (RMG-I): > 5 µM | IC50 (NCI-H1770): > 5 µM | IC50 (NCI-H661): > 5 µM | IC50 (COLO-829): 1730 nM | IC50 (T47D): > 5 µM | IC50 (UACC-257): 66.7 nM | IC50 (OVCAR-8): > 5 µM | IC50 (LNCaP-Clone-FGC): > 5 µM | IC50 (RVH-421): 33.5 nM | IC50 (BB65-RCC): 3.66 µM | IC50 (SNU1): 1240 nM | IC50 (CaR-1): > 5 µM | IC50 (HL-60): 32.4 nM | IC50 (NCI-H1563): 4.47 µM | IC50 (HT-144): 49 nM | IC50 (JAR): > 5 µM | IC50 (HT1197): > 5 µM | IC50 (TE-5): 4.52 µM | IC50 (NCI-H209): > 5 µM | IC50 (DEL): > 5 µM | IC50 (UMUC3): > 5000 nM | IC50 (SK-HEP1): 2050 nM | IC50 (ACN): 65.1 nM | IC50 (TE-8): 1120 nM | IC50 (no-11): > 5 µM | IC50 (HEC-1): > 5 µM | IC50 (CAL-62): 682 nM | IC50 (NCI-H526): > 5 µM | IC50 (DU-4475): 18.3 nM | IC50 (HCT-116): 524 nM | IC50 (MZ2-MEL): 319 nM | IC50 (SK-MEL-1): > 5 µM | IC50 (COLO-684): > 5 µM | IC50 (KARPAS-299): > 5 µM | IC50 (ACHN): > 5 µM | IC50 (NCI-H650): > 5 µM | IC50 (ChaGo-K-1): > 5 µM | IC50 (NCI-H358): > 5 µM | IC50 (PFSK-1): > 5 µM | IC50 (NCI-H1693): > 5 µM | IC50 (S-117): > 5 µM | IC50 (C3A): > 5 µM | IC50 (Calu-3): 4.9 µM | IC50 (BEN): > 5 µM | IC50 (HPAF-II): 1020 nM | IC50 (NCI-H23): > 5 µM

O=C1N=C(NCc2cccs2)S/C1=C\c1ccc2ncccc2c1
IC50 (SW872): > 5000 nM | IC50 (A-431): > 5000 nM | IC50 (NCI-H2228): > 5 µM | IC50 (RMG-I): > 5 µM | IC50 (NCI-H1770): > 5 µM | IC50 (NCI-H661): > 5 µM | IC50 (COLO-829): > 5000 nM | IC50 (T47D): > 5 µM | IC50 (UACC-257): > 5000 nM | IC50 (OVCAR-8): > 5 µM | IC50 (LNCaP-Clone-FGC): > 5 µM | IC50 (RVH-421): > 5000 nM | IC50 (BB65-RCC): > 5 µM | IC50 (SNU1): 731 nM | IC50 (CaR-1): > 5 µM | IC50 (HL-60): > 5000 nM | IC50 (NCI-H1563): > 5 µM | IC50 (HT-144): > 5000 nM | IC50 (JAR): > 5 µM | IC50 (HT1197): > 5 µM | IC50 (TE-5): > 5 µM | IC50 (NCI-H209): > 5 µM | IC50 (DEL): > 5 µM | IC50 (UMUC3): 2740 nM | IC50 (SK-HEP1): > 5000 nM | IC50 (ACN): > 5000 nM | IC50 (TE-8): > 5000 nM | IC50 (no-11): > 5 µM | IC50 (HEC-1): > 5 µM | IC50 (CAL-62): > 5000 nM | IC50 (NCI-H526): > 5 µM | IC50 (DU-4475): > 5000 nM | IC50 (HCT-116): > 5000 nM | IC50 (MZ2-MEL): > 5000 nM | IC50 (SK-MEL-1): > 5 µM | IC50 (COLO-684): > 5 µM | IC50 (KARPAS-299): > 5 µM | IC50 (ACHN): > 5 µM | IC50 (NCI-H650): > 5 µM | IC50 (ChaGo-K-1): > 5 µM | IC50 (NCI-H358): > 5 µM | IC50 (PFSK-1): > 5 µM | IC50 (NCI-H1693): > 5 µM | IC50 (S-117): > 5 µM | IC50 (C3A): > 5 µM | IC50 (Calu-3): > 5 µM | IC50 (BEN): > 5 µM | IC50 (HPAF-II): > 5000 nM | IC50 (NCI-H23): > 5 µM
